The record followed here is patent US20120214811A1, “RAF INHIBITOR COMPOUNDS AND METHODS OF USE THEREOF” (priority 2009, published 2012).

For one assay, the target named is T1, V600E full-length B-Raf (Homo sapiens, UniProt P15056, V600E).
T1 construct: 1 μM FSBA-MEK and 20 nM V600E full-length B-Raf; made in house; host or cells: Sf9 insect cells (baculovirus)
T1 sequence (P15056 whole entry V600E): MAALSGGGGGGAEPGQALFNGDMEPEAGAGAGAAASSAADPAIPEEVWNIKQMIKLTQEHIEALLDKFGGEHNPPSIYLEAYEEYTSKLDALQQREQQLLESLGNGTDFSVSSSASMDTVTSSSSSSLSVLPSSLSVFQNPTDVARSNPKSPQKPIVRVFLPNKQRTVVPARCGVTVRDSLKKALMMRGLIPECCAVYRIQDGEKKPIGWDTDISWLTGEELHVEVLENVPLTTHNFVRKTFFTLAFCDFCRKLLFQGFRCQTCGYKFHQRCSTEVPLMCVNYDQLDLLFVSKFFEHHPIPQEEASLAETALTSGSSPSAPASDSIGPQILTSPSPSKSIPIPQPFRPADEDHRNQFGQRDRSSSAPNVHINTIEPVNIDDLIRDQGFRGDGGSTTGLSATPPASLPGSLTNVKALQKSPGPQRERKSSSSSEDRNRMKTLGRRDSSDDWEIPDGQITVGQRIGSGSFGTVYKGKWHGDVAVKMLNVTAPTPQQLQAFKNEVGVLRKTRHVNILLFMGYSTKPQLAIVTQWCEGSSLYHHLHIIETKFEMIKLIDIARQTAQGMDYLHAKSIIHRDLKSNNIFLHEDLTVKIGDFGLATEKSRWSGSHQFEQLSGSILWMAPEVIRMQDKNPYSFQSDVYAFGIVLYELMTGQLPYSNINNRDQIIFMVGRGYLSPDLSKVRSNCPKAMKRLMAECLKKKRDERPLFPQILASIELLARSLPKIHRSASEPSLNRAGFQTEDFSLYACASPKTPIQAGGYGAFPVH
Briefly: B-Raf IC50 assay (incorporation of radio labeled phosphate from [γ-33P]ATP into FSBA-modified wild-type MEK). It counts as biochemical. Particulars: Example A assay; 4 μM ATP, 20 nM V600E full-length B-Raf, 60-minute incubation at 22° C.; read-out: BRAF V600E IC50. The text has this: Determining the activity of Raf in the sample is possible by a number of direct and indirect detection methods (US 2004/0082014). Activity of human recombinant B-Raf protein may be assessed in vitro by assay of the incorporation of radio labeled phosphate to recombinant MAP kinase (MEK), a known physiologic substrate of B-Raf, according to US 2004/0127496 and WO 03/022840. The activity/inhibition of V600E full-length B-Raf was estimated by measuring the incorporation of radio labeled phosphate from [γ-^33]ATP into FSBA-modified wild-type MEK (see Example A).
Activity of human recombinant B-Raf protein may be assessed in vitro by assay of the incorporation of radio labeled phosphate to recombinant MAP kinase (MEK), a known physiologic substrate of B-Raf, according to US 2004/0127496 and WO 03/022840. Catalytically active human recombinant B-Raf protein is obtained by purification from sf9 insect cells infected with a human B-Raf recombinant baculovirus expression vector.
The activity/inhibition of V600E full-length B-Raf was estimated by measuring the incorporation of radio labeled phosphate from [γ-^33P]ATP into FSBA-modified wild-type MEK. The 30-μL assay mixtures contained 25 mM Na Pipes, pH 7.2, 100 mM KCl, 10 mM MgCl2, 5 mM β-glycerophosphate, 100 μM Na Vanadate, 4 μM ATP, 500 nCi [γ-^33P]ATP, 1 μM FSBA-MEK and 20 nM V600E full-length B-Raf. Incubations were carried out at 22° C. in a Costar 3365 plate (Corning). Prior to the assay, the B-Raf and FSBA-MEK were preincubated together in assay buffer at 1.5× (20 μL of 30 nM and 1.5 μM, respectively) for 15 minutes, and the assay was initiated by the addition of 10 μL of 10 μM ATP. Following the 60-minute incubation, the assay mixtures were quenched by the addition of 100 μL of 25% TCA, the plate was mixed on a rotary shaker for 1 minute, and the product was captured on a Perkin-Elmer GF/B filter plate using a Tomtec Mach III Harvester. After sealing the bottom of the plate, 35 μL of Bio-Safe II (Research Products International) scintillation cocktail were added to each well and the plate was top-sealed and counted in a Topcount NXT (Packard).
On to `CCCS(=O)(=O)Nc1ccc(F)c(NC(=O)N(C)c2cc(NC3CC3)ncn2)c1F` [Example 13, N-(3-(3-(6-(cyclopropylamino)pyrimidin-4-yl)-3-methylureido)-2,4-difluorophenyl)propane-1-sulfonamide], for which the IC50 amounted to 21.8 nM.

Turning to `CCCS(=O)(=O)Nc1ccc(F)c(NC(=O)Nc2ncnc(NC)n2)c1F` [Example 26, N-(2,4-Difluoro-3-(3-(4-(methylamino)-1,3,5-triazin-2-yl)ureido)phenyl)propane-1-sulfonamide], the IC50 came to 235 nM.

On to `CCCS(=O)(=O)Nc1ccc(F)c(NC(=O)N(C)c2cc(N)ncn2)c1F` [Example 15, N-(3-(3-(6-aminopyrimidin-4-yl)-3-methylureido)-2,4-difluorophenyl)propane-1-sulfonamide], for which the IC50 stood at 83.3 nM.

Regarding `CCCS(=O)(=O)Nc1ccc(F)c(NC(=O)N(C)c2cc(NC(C)C)ncn2)c1F` [Example 21, N-(2,4-difluoro-3-(3-(6-(isopropylamino)pyrimidin-4-yl)-3-methylureido)phenyl) propane-1-sulfonamide], the IC50 came out at 132 nM.

On to `CCCS(=O)(=O)Nc1ccc(F)c(NC(=O)Nc2cc(NC)ncn2)c1Cl` [Example 8, Propane-1-sulfonic acid {2-chloro-4-fluoro-3-[3-(6-methylamino-pyrimidin-4-yl)-ureido]-phenyl}-amide], for which the IC50 is 19.8 nM.

As to `CCCS(=O)(=O)Nc1ccc(F)c(NC(=O)N(C)c2cc(NC3CCC3)ncn2)c1F` [Example 18, N-(3-(3-(6-(cyclobutylamino)pyrimidin-4-yl)-3-methylureido)-2,4-difluorophenyl)propane-1-sulfonamide], the IC50 came to 83.6 nM.

`CCCS(=O)(=O)Nc1ccc(F)c(NC(=O)N(C)c2cc(Nc3ccn(C)n3)ncn2)c1F` [Example 12, Propane-1-sulfonic acid (2,4-difluoro-3-{3-methyl-3-[6-(1-methyl-1H-pyrazol-3-ylamino)-pyrimidin-4-yl]-ureido}-phenyl)-amide]: the IC50 came out at 59.1 nM.

Regarding `CCCS(=O)(=O)Nc1ccc(F)c(NC(=O)Nc2ncncc2-c2ccc(Cl)cc2)c1F` [Example 25], the IC50 stood at 288 nM.

As to `CCCS(=O)(=O)Nc1ccc(F)c(NC(=O)N(C)c2cc(NC3CCOC3)ncn2)c1F` (stereo not shown) [Example 19, N-(2,4-difluoro-3-(3-methyl-3-(6-(tetrahydrofuran-3-ylamino)pyrimidin-4-yl)ureido)phenyl)propane-1-sulfonamide], the IC50 came to 283 nM.

`CCCS(=O)(=O)Nc1ccc(Cl)c(NC(=O)Nc2cc(NC)ncn2)c1F` [Example 9, N-4-Chloro-2-fluoro-3-(3-((6-(methylamino)pyrimidin-4-yl)ureido)phenyl)propane-1-sulfonamide]: the IC50 is 8.9 nM.

As for `CCCS(=O)(=O)Nc1ccc(F)c(NC(=O)Nc2cc(NCCO)ncn2)c1F` [Example 5, N-(2,4-difluoro-3-(3-(6-(2-hydroxyethylamino)pyrimidin-4-yl)ureido)phenyl)propane-1-sulfonamide], the IC50 was 63.5 nM.

As to `CCCS(=O)(=O)Nc1ccc(F)c(NC(=O)Nc2cc(NC(C)C)ncn2)c1F` [Example 4, N-(2,4-difluoro-3-(3-(6-(isopropylamino)pyrimidin-4-yl)ureido)phenyl)propane-1-sulfonamide], the IC50 came out at 165 nM.

In the case of `CCCS(=O)(=O)Nc1ccc(F)c(NC(=O)Nc2ncncn2)c1F` [Example 24, N-(3-(3-1,3,5-Triazin-2-ylureido)-2,4-difluorophenyl)propane-1-sulfonamide], the IC50 is 122 nM.

Take `CCCS(=O)(=O)Nc1ccc(F)c(NC(=O)Nc2cc(NCC)ncn2)c1F` [Example 1, Propane-1-sulfonic acid {3-[3-(6-ethylamino-pyrimidin-4-yl)-ureido]-2,4-difluoro-phenyl}-amide]: the IC50 was 28 nM.

`CCCS(=O)(=O)Nc1ccc(F)c(NC(=O)N(C)c2cc(NN)ncn2)c1F` [Example 20, N-(2,4-difluoro-3-(3-(6-hydrazinylpyrimidin-4-yl)-3-methylureido)phenyl) propane-1-sulfonamide]: the IC50 is 33.4 nM.

On to `CCCS(=O)(=O)Nc1ccc(Cl)c(NC(=O)Nc2cc(NCc3ccccc3)ncn2)c1F` [Example 10, N-(3-(3-(6-(Benzylamino)pyrimidin-4-yl)ureido)-4-chloro-2-fluorophenyl)propane-1-sulfonamide], for which the IC50 was 19.2 nM.

For the compound `CCCS(=O)(=O)Nc1ccc(F)c(NC(=O)Nc2cc(NC)ncn2)c1F` [Example 3, N-(2,4-difluoro-3-(3-(6-(methylamino)pyrimidin-4-yl)ureido)phenyl)propane-1-sulfonamide], the IC50 amounted to 31.2 nM.

With `CCCS(=O)(=O)Nc1ccc(F)c(NC(=O)Nc2cc(NCCN3CCOCC3)ncn2)c1F` [Example 6, N-(2,4-difluoro-3-(3-(6-(2-morpholinoethylamino)pyrimidin-4-yl)ureido)phenyl)propane-1-sulfonamide], the IC50 stood at 535 nM.

Turning to `CCCS(=O)(=O)Nc1ccc(F)c(NC(=O)N(C)c2cc(NCCN3CCOCC3)ncn2)c1F` [Example 22, N-(2,4-difluoro-3-(3-methyl-3-(6-(2 morpholinoethylamino)pyrimidin-4-yl)ureido)phenyl)propane-1-sulfonamide], the IC50 worked out at 616 nM.

As for `CCCS(=O)(=O)Nc1ccc(F)c(NC(=O)N(C)c2cc(NCCO)ncn2)c1F` [Example 16, N-(2,4-difluoro-3-(3-(6-(2-hydroxyethylamino)pyrimidin-4-yl)-3-methylureido)phenyl) propane-1-sulfonamide], the IC50 came out at 121 nM.

Consider `CCCS(=O)(=O)Nc1ccc(F)c(NC(=O)N(C)c2ccncn2)c1F` [Example 11, Propane-1-sulfonic acid [2,4-difluoro-3-(3-methyl-3-pyrimidin-4-yl-ureido)-phenyl]-amide], for which the IC50 is 1230 nM.

For the compound `CCCS(=O)(=O)Nc1ccc(F)c(NC(=O)Nc2cc(N)ncn2)c1F` [Example 2, N-(3-(3-(6-aminopyrimidin-4-yl)ureido)-2,4-difluorophenyl)propane-1-sulfonamide], the IC50 stood at 142 nM.

Turning to `CCCS(=O)(=O)Nc1ccc(F)c(NC(=O)N(C)c2cc(NC)ncn2)c1F` [Example 17, N-(2,4-difluoro-3-(3-methyl-3-(6-(methylamino)pyrimidin-4-yl)ureido)phenyl)propane-1-sulfonamide], the IC50 turned out to be 84.6 nM.

Consider `CCCS(=O)(=O)Nc1ccc(F)c(NC(=O)Nc2ncnc(Nc3ccc(F)cc3)n2)c1F` [Example 23, N-(2,4-Difluoro-3-(3-(4-(4-fluorophenylamino)-1,3,5-triazin-2-yl)ureido)phenyl)propane-1-sulfonamide], for which the IC50 was 13.4 nM.

On to `CCCS(=O)(=O)Nc1ccc(F)c(NC(=O)Nc2ccncn2)c1F` [Example 7, Propane-1-sulfonic acid [2,4-difluoro-3-(3-pyrimidin-4-yl-ureido)-phenyl]-amide], for which the IC50 came out at 1390 nM.

On to `CCCS(=O)(=O)Nc1ccc(F)c(NC(=O)N(C)c2cc(NCC)ncn2)c1F` [Example 14, N-(3-(3-(6-(ethylamino)pyrimidin-4-yl)-3-methylureido)-2,4-difluorophenyl)propane-1-sulfonamide], for which the IC50 was 25.6 nM.

The subject of the next assay is basal ERK1/2 phosphorylation. Briefly: Cellular ERK 1/2 phosphorylation assay in Malme-3M cells. It counts as cell-based. Particulars: Homo sapiens, 1 hour incubation, pERK signal normalized to total ERK, read-out: IC50, inhibition of basal ERK1/2 phosphorylation. As to the method: Inhibition of basal ERK1/2 phosphorylation was determined by the following in vitro […], which comprises incubating cells with a compound of Formula II for 1 hour and quantifying the fluorescent pERK signal on fixed cells and normalizing to total ERK signal.
Materials and Methods: Malme-3M cells were obtained from ATCC and grown in RPMI-1640 supplemented with 10% fetal bovine serum. Cells were plated in 96-well plates at 24,000 cells/well and allowed to attach for 16-20 hours at 37° C., 5% CO2. The media was removed, and DMSO-diluted compounds were added in RPMI-1640 at a final concentration of 1% DMSO. The cells were incubated with the compounds for 1 hour at 37° C., 5% CO2. The cells were washed with PBS and fixed in 3.7% formaldehyde in PBS for 15 minutes. This was followed by washing in PBS/0.05% Tween20 and permeabilizing in −20° C. 100% MeOH for 15 minutes. Cells were washed in PBS/0.05% Tween20 then blocked in Odyssey blocking buffer (LI-COR Biosciences) for 1 hour. Antibodies to phosphorylated ERK (1:400, Cell Signaling #9106, monoclonal) and total ERK (1:400, Santa Cruz Biotechnology #sc-94, polyclonal) were added to the cells and incubated 16-20 hours at 4° C. […] Cells were then washed and analyzed for fluorescence at both wavelengths using the Odyssey Infrared Imaging System (LI-COR Biosciences). […]
For `CCCS(=O)(=O)Nc1ccc(F)c(NC(=O)Nc2cc(NC)ncn2)c1Cl` [Example 8, Propane-1-sulfonic acid {2-chloro-4-fluoro-3-[3-(6-methylamino-pyrimidin-4-yl)-ureido]-phenyl}-amide], the IC50 is around 153 nM.

As to `CCCS(=O)(=O)Nc1ccc(F)c(NC(=O)Nc2cc(N)ncn2)c1F` [Example 2, N-(3-(3-(6-aminopyrimidin-4-yl)ureido)-2,4-difluorophenyl)propane-1-sulfonamide], the IC50 is around 438 nM.
